Test results published in patent US4882319A, “Phosphonic acid substituted aromatic steroids as inhibitors of steroid 5-α-reductase” (SmithKline Beckman Corporation, priority 1988, dated 1989).
Like-named read-outs stand apart in the source and are kept apart here.

Experiments:
5-α-Reductase = conditions: cited from earlier work; for Ki: literature value; for Ki / mode of inhibition (Reversible / Irreversible): Table I; for mode of inhibition (Reversible / Irreversible) / time dependence of 5-α-reductase inhibition: literature
[1] = biological target: T1, human steroid 5-α-reductase (Homo sapiens, UniProt P31213); assay: biochemical
T1 construct: Prostatic particles were obtained by differential centrifugation; from tissue; host or cells: hyperplastic human prostate, washed 140,000×g particulate fraction
T1 sequence (P31213 1-254): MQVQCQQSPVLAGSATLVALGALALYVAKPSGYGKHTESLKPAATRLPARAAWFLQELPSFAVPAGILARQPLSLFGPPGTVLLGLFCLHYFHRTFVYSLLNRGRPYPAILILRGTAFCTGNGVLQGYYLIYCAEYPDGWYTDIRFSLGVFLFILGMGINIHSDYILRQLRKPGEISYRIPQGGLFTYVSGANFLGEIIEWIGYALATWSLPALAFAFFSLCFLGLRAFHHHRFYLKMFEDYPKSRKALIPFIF
Description: A compound of the invention, 17β-(N,N-diisopropylcarboxamide)-estr-1,3,5(10)-triene-3-phosphonic acid, was tested for potency in inhibiting human steroid 5-α-reductase using tissue from hyperplastic human prostates. In determining potency in inhibiting the human enzyme, the following procedure was employed:
Frozen human prostates were thawed and minced into small pieces (5 mm^3). The tissue was homogenized in 3 to 5 volumes of 20 mM potassium phosphate buffer, pH 6.5, containing 0.33M sucrose, 1 mM dithiothreitol, and 50 μM NADPH with a Brinkmann Polytron (Sybron Corporation, Westbury, N.Y.). The solution was subjected to sonication for 3 to 5 minutes with a Sonifier (Branson Sonic Power Co.) followed by hand homogenization in a glass-to-glass Dounce homogenizer (Kontes Glass Company, Vineland, N.J.). […]
A constant amount of [^14 C]-testosterone (52 to 55 mCi/mmol, New England Nuclear, Boston, Mass.) in ethanol and varying amounts of the potential inhibitor in ethanol were deposited in test tubes and concentrated to dryness in a SAVANT Speed Vac. […] The radiochemical content in the bands of the substrate and the products was determined with a BIOSCAN Imaging Scanner (Bioscan, Inc., Washington, D.C.). The percent of recovered radiolabel converted to product was calculated, from which enzyme activity was determined. […]

[2] = test system: human steroid 5-α-reductase; conditions: read-out: Michaelis-Menton constant (Km) of the substrate (testosterone); determined in a separate experiment

Structure (SMILES) | Ki (5-α-Reductase) [nM] | mode of inhibition (Reversible / Irreversible) (5-α-Reductase) | other results
CC(=O)C1CCC2C3CC=C=CC(=O)CCC(=O)C3CCC12C (centres unmarked) [(2)] | 1000 | Irreversible | –
CCN(CC)C(=O)C1CCC2C3CC[C@H]4N(C)C(=O)CCC4(C)C3CCC12C (some centres unmarked) [(4)] | 5 | Reversible | –
CC12CCC(=O)C=C1CCC1C2CCC2(C)C1CC[C@@H]2C(=O)O (some centres unmarked) [(1)] | 1100 | Reversible | –
C=C1CC2C(CCC3(C)C2CC[C@]3(OC(C)=O)C(C)=O)C2(C)CCC(=O)C=C12 (some centres unmarked) [(5)] | 1250 | Irreversible | time dependence of 5-α-reductase inhibition (5-α-Reductase): time-dependent inactivator
CC(CO)C1CCC2C3CC[C@H]4C(=[N+]=[N-])C(=O)CCC4(C)C3CCC12C (some centres unmarked) [(3)] | – | Irreversible | Ki (5-α-Reductase; unit inferred): 35 nM; time dependence of 5-α-reductase inhibition (5-α-Reductase): potent, time-dependent inhibitor
CC(C)N(C(=O)[C@H]1CCC2C3CCc4cc(P(=O)(O)O)ccc4C3CCC21C)C(C)C (stereo partly drawn) [Example 1, 17β-(N,N-Diisopropylcarboxamide)-estr-1,3,5(10)-triene-3-phosphonic Acid] | – | – | Ki [1]: 50 nM
C[C@]12CC[C@H]3[C@@H](CCC4=CC(=O)CC[C@@]43C)[C@@H]1CC[C@@H]2O [testosterone] | – | – | Km [2]: 4.5 µM
